# Assay results: publication PMC12951562, “SH2scan: Mapping SH2 Domain-Ligand Binding Selectivity for Inhibitors and Degraders” (Journal of Medicinal Chemistry, 2026)
# Read-outs that look alike come from different tables or passages of the source. Non-standard residues stand in square brackets, D forms with d. Residues, ends and D or L forms follow the SMILES beside them. *: point of attachment. pY = N[C@@H](Cc1ccc(OP(=O)(O)O)cc1)C(=O)O; Caffeoyl = O=C(/C=C/c1ccc(O)c(O)c1)*
# What was measured:
# Assay in all cases: biochemical
# Type in all cases: binding
# GRB14 = target: T1, GRB14 (Homo sapiens, UniProt Q14449); conditions: for remaining activity at 10 µM: read-out: percent of DMSO vehicle control
# T1 construct: the DNA-tagged SH2 domain concentrations used in this study were <0.1 nM; made in house; host or cells: HEK293 (transient transfection; unpurified extract)
# T1 sequence (Q14449 439-535 limits assumed): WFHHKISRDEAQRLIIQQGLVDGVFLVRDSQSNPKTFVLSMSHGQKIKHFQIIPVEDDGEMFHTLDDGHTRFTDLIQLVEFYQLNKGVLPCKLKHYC
# PIK3R1(SH2dom.C-term.) = target: T2, PIK3R1(SH2dom.C-term.) (Homo sapiens, UniProt P27986); conditions: for remaining activity at 10 µM: read-out: percent of DMSO vehicle control
# T2 construct: SH2dom.C-term. denotes SH2 domain closest to C-terminus of protein; made in house; host or cells: HEK293 (transient transfection, unpurified extract)
# T2 sequence (P27986 624-718 limits assumed): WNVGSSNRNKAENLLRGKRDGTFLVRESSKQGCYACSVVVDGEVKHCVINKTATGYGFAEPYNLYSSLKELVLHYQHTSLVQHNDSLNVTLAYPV
# PIK3R3(SH2dom.N-term.) = target: T3, PIK3R3(SH2dom.N-term.) (Homo sapiens, UniProt Q92569); conditions: for remaining activity at 10 µM: read-out: percent of DMSO vehicle control
# T3 construct: SH2dom.N-term. denotes SH2 domain closest to N-terminus of protein; made in house; host or cells: HEK293 (transient transfection, unpurified extract)
# PIK3R1(SH2dom.N-term.) = target: T4, PIK3R1(SH2dom.N-term.) (Homo sapiens, UniProt P27986); conditions: for remaining activity at 10 µM: read-out: percent of DMSO vehicle control
# T4 construct: SH2dom.N-term. denotes SH2 domain closest to N-terminus of protein; made in house; host or cells: HEK293 (transient transfection, unpurified extract)
# T4 sequence (P27986 333-428 limits assumed): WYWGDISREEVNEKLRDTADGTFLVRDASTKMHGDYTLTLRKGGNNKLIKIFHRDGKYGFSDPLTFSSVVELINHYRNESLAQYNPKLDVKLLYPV
# PIK3R2(SH2dom.C-term.) = target: T5, PIK3R2(SH2dom.C-term.) (Homo sapiens, UniProt O00459); conditions: for KD / Kd: dose-response; for remaining activity at 10 µM: read-out: percent of DMSO vehicle control; for Kd: read-out: KD
# T5 construct: SH2dom.C-term. denotes SH2 domain closest to C-terminus of protein; made in house; host or cells: HEK293 (transient transfection, unpurified extract)
# T5 sequence (O00459 622-716 limits assumed): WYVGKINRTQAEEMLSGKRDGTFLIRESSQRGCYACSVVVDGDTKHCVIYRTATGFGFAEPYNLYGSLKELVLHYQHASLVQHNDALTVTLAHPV
# PLCG1(SH2dom.N-term.) = target: T6, PLCG1(SH2dom.N-term.) (Homo sapiens, UniProt P19174); conditions: for remaining activity at 10 µM: read-out: percent of DMSO vehicle control
# T6 construct: SH2dom.N-term. denotes SH2 domain closest to N-terminus of protein; made in house; host or cells: HEK293 (transient transfection, unpurified extract)
# T6 sequence (P19174 550-657 limits assumed): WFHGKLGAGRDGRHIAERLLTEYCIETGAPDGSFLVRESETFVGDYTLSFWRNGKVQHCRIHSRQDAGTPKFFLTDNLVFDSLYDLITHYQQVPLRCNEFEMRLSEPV
# SRC = target: T7, SRC (Homo sapiens, UniProt P12931); conditions: for remaining activity at 10 µM: read-out: percent of DMSO vehicle control
# T7 construct: made in house; host or cells: HEK293 (transient transfection), unpurified extract
# T7 sequence (P12931 whole entry): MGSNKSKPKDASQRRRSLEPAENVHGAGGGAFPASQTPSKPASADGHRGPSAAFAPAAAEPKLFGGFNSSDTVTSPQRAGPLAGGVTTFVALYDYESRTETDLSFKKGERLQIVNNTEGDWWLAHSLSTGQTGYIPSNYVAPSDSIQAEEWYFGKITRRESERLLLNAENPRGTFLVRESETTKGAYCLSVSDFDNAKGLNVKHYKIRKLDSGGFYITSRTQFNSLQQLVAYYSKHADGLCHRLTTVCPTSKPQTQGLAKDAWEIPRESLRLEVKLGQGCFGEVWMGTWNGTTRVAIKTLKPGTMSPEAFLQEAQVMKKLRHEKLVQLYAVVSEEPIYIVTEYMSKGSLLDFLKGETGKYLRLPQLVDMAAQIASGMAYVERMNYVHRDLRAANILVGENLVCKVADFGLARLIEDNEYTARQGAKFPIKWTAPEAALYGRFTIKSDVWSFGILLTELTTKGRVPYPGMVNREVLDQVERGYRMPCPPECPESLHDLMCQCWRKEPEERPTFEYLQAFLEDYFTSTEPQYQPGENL
# HSH2D = target: T8, HSH2D (Homo sapiens, UniProt Q96JZ2); conditions: for percent of DMSO vehicle control at 10 µM / remaining activity at 10 µM: read-out: percent of DMSO vehicle control; for remaining activity at 10 µM: primary screen
# T8 construct: the DNA-tagged SH2 domain concentrations used in this study were <0.1 nM; made in house; host or cells: HEK293 (transient transfection, unpurified extract)
# T8 sequence (Q96JZ2 34-125 limits assumed): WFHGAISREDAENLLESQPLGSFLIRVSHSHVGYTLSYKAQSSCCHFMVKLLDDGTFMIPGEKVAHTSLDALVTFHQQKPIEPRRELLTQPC
# SH2D1B = target: T9, SH2D1B (Homo sapiens, UniProt O14796); conditions: for remaining activity at 10 µM: read-out: percent of DMSO vehicle control
# T9 construct: made in house; host or cells: HEK293 (transient transfection), unpurified extract
# T9 sequence (O14796 1-132): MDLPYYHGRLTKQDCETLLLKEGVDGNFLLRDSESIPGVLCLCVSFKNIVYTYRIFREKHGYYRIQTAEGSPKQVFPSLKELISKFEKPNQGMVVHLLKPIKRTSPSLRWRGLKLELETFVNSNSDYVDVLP
# LYN = target: T10, LYN (Homo sapiens, UniProt P07948); conditions: for remaining activity at 10 µM: read-out: percent of DMSO vehicle control
# T10 construct: the DNA-tagged SH2 domain concentrations used in this study were <0.1 nM; made in house; host or cells: HEK293 (transient transfection, unpurified extract)
# T10 sequence (P07948 129-226 limits assumed): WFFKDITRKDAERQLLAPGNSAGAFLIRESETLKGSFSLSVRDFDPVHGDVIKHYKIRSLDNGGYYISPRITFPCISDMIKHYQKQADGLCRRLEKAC
# ITK = target: T11, ITK (Homo sapiens, UniProt Q08881); conditions: for percent of DMSO vehicle control: primary screen, 10 μM
# T11 construct: the DNA-tagged SH2 domain concentrations used in this study were <0.1 nM; made in house; host or cells: HEK293 (transient transfection, unpurified extract)
# T11 sequence (Q08881 239-338 limits assumed): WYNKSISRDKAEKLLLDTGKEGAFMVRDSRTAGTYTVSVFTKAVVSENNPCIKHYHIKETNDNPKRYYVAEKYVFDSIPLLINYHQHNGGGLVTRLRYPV
# SOCS3 = target: T12, SOCS3 (Homo sapiens, UniProt O14543); conditions: for remaining activity at 10 µM: read-out: percent of DMSO vehicle control; for KD: dose-response
# T12 construct: made in house; host or cells: HEK293 (transient transfection), unpurified extract
# T12 sequence (O14543 1-225): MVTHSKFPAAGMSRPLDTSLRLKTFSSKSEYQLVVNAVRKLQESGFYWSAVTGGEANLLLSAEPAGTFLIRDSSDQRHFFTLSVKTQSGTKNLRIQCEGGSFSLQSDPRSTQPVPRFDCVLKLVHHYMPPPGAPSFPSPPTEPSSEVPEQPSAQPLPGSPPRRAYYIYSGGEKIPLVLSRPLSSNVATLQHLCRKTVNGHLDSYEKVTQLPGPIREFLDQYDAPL
Structure (SMILES),remaining activity at 10 µM (GRB14) [%],remaining activity at 10 µM (PIK3R1(SH2dom.C-term.)) [%],remaining activity at 10 µM (PIK3R3(SH2dom.N-term.)) [%],remaining activity at 10 µM (PIK3R1(SH2dom.N-term.)) [%],KD (PIK3R2(SH2dom.C-term.)),remaining activity at 10 µM (PIK3R2(SH2dom.C-term.)) [%],remaining activity at 10 µM (PLCG1(SH2dom.N-term.)) [%],remaining activity at 10 µM (SRC) [%],percent of DMSO vehicle control (ITK) [%],"remaining activity at 10 µM (GRB14; primary screen, 10 μM) [%]","remaining activity at 10 µM (PIK3R1(SH2dom.C-term.); primary screen, 10 μM) [%]","remaining activity at 10 µM (PIK3R3(SH2dom.N-term.); primary screen, 10 μM) [%]","remaining activity at 10 µM (PIK3R1(SH2dom.N-term.); primary screen, 10 μM) [%]","remaining activity at 10 µM (PIK3R2(SH2dom.C-term.); primary screen, 10 μM) [%]","remaining activity at 10 µM (PLCG1(SH2dom.N-term.); primary screen, 10 μM) [%]","remaining activity at 10 µM (SRC; primary screen, 10 μM) [%]",remaining activity at 10 µM (HSH2D) [%],"remaining activity at 10 µM (SH2D1B; primary screen, 10 μM) [%]","remaining activity at 10 µM (LYN; primary screen, 10 μM) [%]","remaining activity at 10 µM (SOCS3; primary screen, 10 μM) [%]",also measured
CC[C@H](C)[C@H](NC(=O)[C@H](CCC(=O)O)NC(=O)[C@H](CCC(=O)O)NC(=O)[C@H](Cc1ccc(OP(=O)(O)O)cc1)NC(=O)/C=C/c1ccc(O)c(O)c1)C(=O)N[C@@H](CCC(=O)O)C(=O)O [Caffeic acid-pYEEIE] (Caffeoyl-[pY]EEIE-OH),0,0.2 ± 0.1,0.6,0.7 ± 0.1,No Hit,0.3 ± 0.9,0.3,0,3.1±0.3,,,,,,,,,,,,Kd (GRB14): 1200 ± 920 nM; Kd (PIK3R1(SH2dom.C-term.)): 140 ± 100 nM; Kd (PIK3R3(SH2dom.N-term.)): 150 ± 20 nM; Kd (PIK3R1(SH2dom.N-term.)): 140 ± 17 nM; Kd (PLCG1(SH2dom.N-term.)): 180 ± 200 nM; Kd (SRC): 4.8 ± 1.3 nM; percent of DMSO vehicle control at 10 µM (HSH2D): 80.3 ± 18.6%; Kd (SH2D1B): 65 ± 14 nM; remaining activity at 10 µM (SH2D1B): 12.9 ± 2.3%; Kd (LYN): 1 ± 0.34 nM; remaining activity at 10 µM (LYN): 0%; Kd (ITK): 570 ± 630 nM; Kd (SOCS3): 1800 ± 2000 nM; remaining activity at 10 µM (SOCS3): 5.3 ± 0.3%
NC(=O)CC[C@H](NC(=O)[C@@H]1CC[C@@H]2CCN(C(=O)CCCCCC#Cc3cccc4c3CN(C3CCC(=O)NC3=O)C4=O)C[C@H](NC(=O)c3cc4cc(C(F)(F)P(=O)(O)O)ccc4[nH]3)C(=O)N21)C(=O)NC(c1ccccc1)c1ccccc1 (some centres unmarked) [SD-36],43.2 ± 2.9,94.6 ± 6.5,111 ± 7.3,124,No Hit,18.5 ± 3.9,91.3 ± 4.5,81.4 ± 1.5,94.0±11.1,,,,,,,,,,,,percent of DMSO vehicle control at 10 µM (HSH2D): 72.7 ± 14.5%; remaining activity at 10 µM (SH2D1B): 99.6 ± 1.3%; remaining activity at 10 µM (LYN): 90.9 ± 2.3%; remaining activity at 10 µM (SOCS3): 100 ± 1.2%
CC(C)(C)[C@H](NC(=O)/C=C/c1ccc(OP(=O)(O)O)cc1)C(=O)N1CCC[C@H]1C(=O)N(c1ccccc1)c1ccc(I)cc1 [STAT6-IN-3],,,,,,,,,0±54.7,79.3 ± 7.7,32.6 ± 4.4,85.8 ± 16.7,85.6 ± 12.9,6.1 ± 1.6,32.7 ± 14.4,67 ± 21,19.6 ± 29.7,46 ± 22.7,82.3 ± 17.1,52.6 ± 50.6,"Kd (PIK3R1(SH2dom.C-term.); dose-response, read-out: KD): 3000 ± 730 nM; Kd (PIK3R2(SH2dom.C-term.)): 490 ± 80 nM; Kd (PLCG1(SH2dom.N-term.); dose-response, read-out: KD): 3700 ± 330 nM; Kd (HSH2D; dose-response, read-out: KD): 7600 ± 1600 nM; KD (SOCS3): No Hit"
C/C(=C\C(=O)N[C@H](C(=O)N1CCC[C@H]1C(=O)N(c1ccccc1)c1ccc(I)cc1)C(C)(C)C)c1ccc(OP(=O)(O)O)cc1 [STAT6-IN-1],,,,,,,,,0.0±0.0,24.5 ± 4,12.3 ± 0.1,48.3 ± 1.7,44.8 ± 5,0.2 ± 0.1,0.3 ± 0.1,53.3 ± 8.1,14.6 ± 0.1,49.6 ± 1.2,73.6 ± 54,39.3 ± 22.1,"Kd (GRB14; dose-response, read-out: KD): 3500 ± 420 nM; Kd (PIK3R1(SH2dom.C-term.); dose-response, read-out: KD): 3400 ± 1100 nM; Kd (PIK3R2(SH2dom.C-term.)): 1000 ± 78 nM; Kd (PLCG1(SH2dom.N-term.); dose-response, read-out: KD): 890 ± 720 nM; KD (HSH2D; dose-response): No Hit; Kd (ITK; dose-response, read-out: KD): 10300 nM; KD (SOCS3): No Hit"
O=C(COc1ccc2cc(C(=O)Nc3ccccc3)ccc2c1)NCc1ccc(OP(=O)(O)O)c(OP(=O)(O)O)c1 [Stafib-1],,,,,,,,,0±61.0,55.1 ± 11.6,85.3 ± 16.8,105,88.8 ± 24.3,84.2 ± 34.7,82.6 ± 20.2,90.6 ± 5.2,27.1,62.9 ± 9.5,95.6 ± 22.4,72.7 ± 29,KD (HSH2D; dose-response): No Hit; KD (ITK; dose-response): No Hit
